Where a SMILES comes first, the peptide text is derived from it. The star is where a group is joined. Cbz = O=C(OCc1ccccc1)*
How the values were obtained:
20S and 26S proteasomes = conditions: read-out: Ki (proteasomal inhibitor); cited from earlier work
DMD gene exon 44 = experiment: Exon 44 skipping in control myotubes transfected with PS188 in presence of pentoxifylline (RT-PCR); format: cell-based, human; conditions: 250 nM PS188, 0 to 0.5 mg/ml pentoxifylline, RNA 24 hrs after transfection
Procedure: (§1) A., B. Differentiated muscle cell cultures (myotubes) derived from a healthy control individual were transfected with 250 nM PS188 ([5′ […] 3′; SEQ ID NO:10] an AON optimized to specifically skip exon 44) or 250 nM PS221 ([5′ […] 3′; SEQ ID NO: 60] an AON optimized to specifically skip exon 45) in the presence of 0 to 0.5 mg/ml pentoxifylline, using the transfection reagent polymer UNIFectylin (2.0 μl UNIFectylin per μg AON in 0.15M NaCl). UNIFectylin interacts electrostatically with nucleic acids, provided that the nucleic acid is negatively charged (such as 2′-O-methyl phosphorothioate AONs). Pentoxyfillin (Sigma Aldrich) was dissolved in water. Total RNA was isolated 24 hrs after transfection in RNA-Bee solution (Campro Scientific, The Netherlands) according to the manufacturer's instructions. For cDNA synthesis with reverse transcriptase (Roche Diagnostics, The Netherlands), 500 ng of RNA was used in a 20 μl reaction at 55° C. for 30 min, reverse primed with DMD gene-specific primers. First PCRs were performed with outer primer sets, for 20 cycles of 94° C. (40 sec), 60° C. (40 sec), and 72° C. (60 sec). One μl of this reaction (diluted 1:10) was then re-amplified using nested primer combinations in the exons directly flanking exon 44 or 45, with 30 cycles of 94° C. (40 sec), 60° C. (40 sec), and 72° C. (60 sec). PCR products were analysed on 2% agarose gels. Skipping efficiencies were determined by quantification of PCR products using the DNA 1000 LabChip® Kit and the Agilent 2100 bioanalyzer (Agilent Technologies, The Netherlands).

[1] = test system: exon 23 of the dystrophin gene; experiment: Exon 23 skipping in mdx mice treated with PS49 with or without prednisolone (RT-PCR); format: in vivo
Procedure: Two mdx mice per group were injected subcutaneously with: Group 1) physiologic salt (wk 1-8), Group 2) prednisolone (1 mg/kg, wk 1-8), Group 3) mouse-specific antisense oligonucleotide PS49 designed to specifically induce exon 23 skipping (100 mg/kg, wk 4 (5 times), week 5-8 (2 times), Group 4) prednisolone (1 mg/kg, wk 1-8)+PS49 (100 mg/kg, wk 4 (5 times), week 5-8 (2 times). PS49 (5′ [sequence] 3′) has a full-length phosphorothioate backbone and 2′O-methyl modified ribose molecules.
All mice were sacrificed at 1 week post-last-injection. Different muscles groups, including quadriceps, tibialis anterior, and diaphragm muscles were isolated and frozen in liquid nitrogen-cooled 2-methylbutane. For RT-PCR analysis, the muscle samples were homogenized in the RNA-Bee solution (Campro Scientific, The Netherlands). Total RNA was isolated and purified according to the manufacturer's instructions. For cDNA synthesis with reverse transcriptase (Roche Diagnostics, The Netherlands), 300 ng of RNA was used in a 20 μl reaction at 55° C. for 30 min, reverse primed with mouse DMD gene-specific primers. First PCRs were performed with outer primer sets, for 20 cycles of 94° C. […] PCR products were analysed on 2% agarose gels. Skipping efficiencies were determined by quantification of PCR products using the DNA 1000 LabChip® Kit and the Agilent 2100 bioanalyzer (Agilent Technologies, The Netherlands).

DMD gene exon 45 = experiment: Exon 45 skipping in control myotubes transfected with PS221 in presence of pentoxifylline (RT-PCR); format: cell-based, human; conditions: 250 nM PS221, 0 to 0.5 mg/ml pentoxifylline, RNA 24 hrs after transfection
Procedure: as §1

[2] = test system: exon 23 of the dystrophin gene; experiment: Exon 23 skipping in mdx mice treated with PS49 with or without pentoxyfilline (RT-PCR); format: in vivo
Procedure: In a pre-clinical study in mdx mice (animal model for DMD) the effect of adjunct compound pentoxyfilline on AON-induced exon skipping was assessed. Mdx mice (C57Bl/10ScSn-mdx/J) were obtained from Charles River Laboratories (The Netherlands). These mice are dystrophin-deficient due to a nonsense mutation in exon 23. AON-induced exon 23 skipping is therapeutic in mdx mice by removing the nonsense mutation and correction of the open reading frame. Two mdx mice per group were injected subcutaneously with: Group 1) pentoxyfilline (50 mg/kg, wk 1-2), Group 2) mouse-specific antisense oligonucleotide PS49 designed to specifically induce exon 23 skipping (100 mg/kg, wk 2 (2 times), Group 3) pentoxyfilline (50 mg/kg, wk 1-2)+PS49 (100 mg/kg, wk 2 (2 times). PS49 (5′ […] 3′) has a full-length phosphorothioate backbone and 2′O-methyl modified ribose molecules.
All mice were sacrificed at 1 week post-last-injection. Different muscles groups, including quadriceps, tibialis anterior, triceps and heart muscles were isolated and frozen in liquid nitrogen-cooled 2-methylbutane. […] PCR products were analysed on 2% agarose gels. Skipping efficiencies were determined by quantification of PCR products using the DNA 1000 LabChip® Kit and the Agilent 2100 bioanalyzer (Agilent Technologies, The Netherlands).

dystrophin = conditions: mdx mice; variability among animals; cited from earlier work
[3] = mdx mice, s.c., sacrificed 1 week post-last-injection

For CC(C)C[C@@H](C=O)NC(=O)[C@H](CC(C)C)NC(=O)[C@H](CC(C)C)NC(=O)OCc1ccccc1 [MG-132, CBZ-leucyl-leucyl-leucinal] (Cbz-Leu-Leu-Leu-aldehyde), the Ki (20S and 26S proteasomes) is listed as 4 nM.

With “PS188: 5′ UCAGCUUCUGUUAGCCACUG 3′; SEQ ID NO:10; an AON optimized to specifically skip exon 44 (chemistry not given here)” the “exon 44 skipping levels” value (DMD gene exon 44) was “increasing levels”.

For C[C@]12C=CC(=O)C=C1CC[C@@H]1[C@@H]2[C@@H](O)C[C@@]2(C)[C@H]1CC[C@]2(O)C(=O)CO [prednisolone], the “exon 23 skipping in muscles (RT-PCR)” value [1, 3] was “No exon 23 skipping was observed” and the “exon 23 skipping levels, PS49 plus prednisolone (group 4) compared to PS49 only (group 3)” value ([1]; quadriceps, tibialis anterior, diaphragm, prednisolone 1 mg/kg wk 1-8, PS49 100 mg/kg) was “enhances exon 23 skipping levels”.

For CC(=O)CCCCn1c(=O)c2c(ncn2C)n(C)c1=O [pentoxifylline], the “exon 45 skipping levels” value (DMD gene exon 45) was “enhances exon skipping levels”, the “exon 45 skipping levels” value (DMD gene exon 45; listed as pentoxyfilline) was “enhanced” and the “exon 44 skipping levels” value (DMD gene exon 44) was “enhances exon skipping levels”. For the same molecule, the “exon 44 skipping levels” value (DMD gene exon 44; listed as pentoxyfilline) was “enhanced”, the “exon 23 skipping in muscles (RT-PCR)” value [2, 3] was “No exon 23 skipping was observed” and the “exon 23 skipping levels, PS49 plus pentoxyfilline (group 3) compared to PS49 only (group 2)” value ([2]; quadriceps, tibialis anterior, triceps, heart, pentoxyfilline 50 mg/kg wk 1-2, PS49 100 mg/kg) was “enhances exon 23 skipping levels”.

For gentamicin, the “novel dystrophin expression, of normal level” value (dystrophin) is listed as “up to 20%”.

For “PS221: 5′ AUUCAAUGUUCUGACAACAGUUUGC 3′; SEQ ID NO: 60; an AON optimized to specifically skip exon 45 (chemistry not given here)”, the “exon 45 skipping levels” value (DMD gene exon 45) was “increasing levels”.

Source: patent USRE48468E1, “Means and methods for counteracting muscle disorders” (BioMarin Technologies B.V., priority 2007, dated 2021)
